# What was measured:
# Assay type in all cases: functional, cell-based
# [1] = Cytotoxicity against CD30 positive Karpas 299 cells assessed as cell viability after 96 hrs; conditions: Homo sapiens, KARPAS-299, 96 h
# [2] = system: L-428; experiment: Cytotoxicity against CD30 positive and CD70 negative L428 cells assessed as cell viability after 96 hrs; conditions: Homo sapiens, L-428, 96 h
# [3] = system: CAKI-1; experiment: Cytotoxicity against CD70 positive Caki1 cells assessed as cell viability after 96 hrs; conditions: Homo sapiens, CAKI-1, 96 h
# [4] = Cytotoxicity against CD30 positive L540 Cy cells assessed as cell viability after 96 hrs; conditions: Homo sapiens, L540cy
structure (smiles),measurement,setting,value
COc1ccc(/C=C/C(=O)N2CC(CCl)c3c2cc(N)c2ccccc32)cc1 (centres undefined),IC50,[1],1.2 nM
same,IC50,[2],0.1 nM
same,IC50,[3],0.7 nM
same,IC50,[4],0.5 nM

# Reference: ChEMBL document CHEMBL1139151, “Minor groove binder antibody conjugates employing a water soluble beta-glucuronide linker” (Bioorg Med Chem Lett, 2007)
